{"source": "a melting point compilation (Tetko et al.; mined from patent text by program, amines drawn as free bases though some values may be those of a salt)", "note": "Residues, ends and D or L forms follow the SMILES beside them. *: point of attachment. Cbz = O=C(OCc1ccccc1)*"}
{"units": {"melting point": "°C"}}
{"smiles": "Cc1ccnc(C(=O)c2[nH]c3cc(Cl)ccc3c2N)c1", "melting point": "195 to 196"}
{"smiles": "CCCCCCCCCCCCCCC(C)C(=O)O", "note": "(stereo not drawn)", "melting point": "44 to 46"}
{"smiles": "CC(=O)N1c2ccccc2C[C@H]1C#N", "melting point": "134 to 135"}
{"smiles": "Cc1ncc(CCCCC(=O)O)s1", "melting point": 75}
{"smiles": "Cc1cc2c(c(C(=O)c3ccccc3)c1)NCC2", "melting point": 84}
{"smiles": "COc1ccc(-c2ncc(N(C)CCCCOCC(=O)O)nc2-c2ccc(OC)cc2)cc1", "melting point": "128 to 130"}
{"smiles": "O=C(O)c1ccc(CO[N+](=O)[O-])cc1", "melting point": "159 to 161"}
{"smiles": "CCn1nc(C#N)c(=O)c2ccccc21", "melting point": "216 to 218"}
{"smiles": "Cc1cc2c(cc1Cl)C(CC(=O)O)(c1ccccc1OC(C)C)C(=O)N2", "note": "(stereo not drawn)", "melting point": "148 to 150"}
{"smiles": "O=S1(=O)N[C@@H](c2ccccc2)c2ccccc21", "melting point": 139}
{"smiles": "COCCO[C@@H]1c2ccc3c(nc(C4CC4)n3C)c2O[C@H](c2ccccc2)[C@H]1O", "melting point": 133}
{"smiles": "Cc1ccc(S(=O)(=O)N(CCCl)N(S(C)(=O)=O)S(C)(=O)=O)cc1", "melting point": "99 to 101"}
{"smiles": "COc1cccc(CNC(=O)[C@@H]2CCCN(c3cccc4c3C(=O)N(Cc3ccncc3)C4=O)C2)c1OC", "melting point": "199 to 200"}
{"smiles": "O=S(=O)(c1cccs1)N(CCN1CCOCC1)c1cccc2cc(-c3nccs3)[nH]c12", "melting point": "192 to 193"}
{"smiles": "CC(=O)NC[C@H]1CN(c2ccc(C(=O)c3cnc4cc(C)ccn34)cc2)C(=O)O1", "melting point": "254 to 256"}
{"smiles": "CCC(=NOC)c1ccc(=O)[nH]c1CC", "melting point": "120 to 125"}
{"smiles": "[O-][N+]1=C(c2ccccc2)c2cc(C(F)(F)F)ccc2-n2c(CBr)nnc2C1", "melting point": "185 to 210"}
{"smiles": "CCc1nc(=O)[nH]c2cc(OC)c(OC)cc12", "melting point": "263 to 265"}
{"smiles": "CCOC(=O)c1ccc(-c2nc(COc3ccc(CCl)cc3OCC)c(C)o2)s1", "melting point": "157 to 158"}
{"smiles": "CC(C)c1nc2c([nH]1)c(=S)[nH]c(=O)n2-c1cccc(Cl)c1", "melting point": "290 to 293"}
{"smiles": "CN1Cc2c(-c3nc(CCl)co3)ncn2-c2ccsc2C1=O", "melting point": "200 to 206"}
{"smiles": "CN(C)C(=O)N(C)C(=O)Nc1ccccc1", "melting point": "89.5 to 90.5"}
{"smiles": "CN1COCN(Cc2ccc(Cl)nc2)C1=N[N+](=O)[O-]", "melting point": "116 to 118"}
{"smiles": "Cc1cc(CC(=O)O)[nH]c1C(=O)c1ccccc1", "melting point": "167 to 168"}
{"smiles": "CCC(=O)Nc1c([N+](=O)[O-])cnn1-c1ccc(Cl)c(Cl)c1Cl", "melting point": "79 to 81"}
{"smiles": "COc1ccc(-c2cncc(OC3SCC(O)C(O)C3O)c2)c(Cl)c1", "note": "(stereo not drawn)", "melting point": 218}
{"smiles": "O=C1CC2O/C(=C/C3(C(=O)OCc4ccccc4)C=CC=CC3)CN12", "note": "(stereo not drawn)", "melting point": "120 to 121"}
{"smiles": "O=C(O)C1=C(SCc2ccccc2)CCC1", "melting point": 233}
{"smiles": "CNc1nc(C2C(=O)Nc3ccc(C(F)(F)F)cc32)c2cn(C3CCCC3)nc2n1", "note": "(stereo not drawn)", "melting point": "> 300"}
{"smiles": "CC(=O)Nc1nc(C)c(-c2ccc(S(C)(=O)=O)cc2)s1", "melting point": "251 to 253"}
{"smiles": "CC1NC(=O)NN=C1c1ccc(N)c(Br)c1", "note": "(stereo not drawn)", "melting point": "222 to 224"}
{"smiles": "NC(=O)CCC(NC(=O)OCc1ccccc1)C(=O)NCC(=O)NCC(=O)NC(CO)C(=O)NC(CC(N)=O)C(=O)NC(Cc1ccccc1)C(N)=O", "note": "(stereo not drawn) (Cbz-QGGSNF-NH2; configuration not given here)", "melting point": "225 to 227"}
{"smiles": "Nc1nc(-c2cccc(F)c2)nc2nc(-c3ccco3)nn12", "melting point": "> 300"}
{"smiles": "Clc1ccc2c(c1)Oc1ccccc1C=C2CBr", "melting point": "117 to 119"}
{"smiles": "CN(C)C=Nc1c(Cl)cc(N=Cc2cc(Cl)cc(Cl)c2)cc1Cl", "melting point": "194 to 195"}
{"smiles": "CC(C)(C)OC(=O)NCCc1cccc(O)c1", "melting point": "79 to 82"}
{"smiles": "Cc1cc(CCCCCOc2c(Cl)cc(C3=NCCO3)cc2Cl)on1", "melting point": "42 to 43"}
{"smiles": "Clc1ccc2nc(Cl)c3nnc(-c4ccccc4)n3c2c1", "melting point": "305 to 307"}
{"smiles": "COC(=O)NNC(=S)Cc1cccc(C(F)(F)F)c1", "melting point": "131 to 132"}
{"smiles": "CC(C)(C)C(=O)OCOC(=O)c1[nH]c2ccccc2c1Nc1ccncc1", "melting point": "223 to 224"}
{"smiles": "O=c1cc(-c2ccc(O)cc2[N+](=O)[O-])oc2ccccc12", "melting point": "277 to 279"}
{"smiles": "O=C(O)C1C(C=C(Cl)Cl)C12CCCC2", "note": "(stereo not drawn)", "melting point": "90 to 105"}
{"smiles": "CC1CCN(C(=O)[C@H](CCCSc2ccccn2)NS(=O)(=O)c2ccc3ccccc3c2)CC1", "melting point": "131 to 132"}
{"smiles": "N#CCCNNC(=O)c1ccc(OCc2ccccc2)cc1", "melting point": 136}
{"smiles": "CC1(OC(=O)c2ccccc2)C(OC(=O)c2ccccc2)OC(COC(=O)c2ccccc2)C1OC(=O)c1ccccc1", "note": "(stereo not drawn)", "melting point": "201 to 209"}
{"smiles": "CCc1cn(C2OC(CN)C(O)C2F)c(=O)[nH]c1=O", "note": "(stereo not drawn)", "melting point": "194 to 214"}
{"smiles": "CC(=NO)c1ccccc1N", "melting point": "55 to 60"}
{"smiles": "COC(=O)C(O)C(NC(=O)OCc1ccccc1)c1ccccc1", "note": "(stereo not drawn)", "melting point": "120 to 121"}
{"smiles": "O=C(CC1CCCCC1)Nc1c(Cl)ccc2nc(CCCNCCCO)ccc12", "melting point": "159 to 163"}
{"smiles": "COc1ccc(-c2[nH]nc3c2C(=O)c2c(NC(=O)Nc4ccncc4)cccc2-3)cc1", "melting point": "> 300"}
{"smiles": "Nc1nonc1-c1nc2ccccc2n1COc1ccccc1", "melting point": "171 to 173"}
{"smiles": "CCCCOC(=O)C(O)C1OC(n2cnc3c(N)ncnc32)C(O)C1O", "note": "(stereo not drawn)", "melting point": 167}
{"smiles": "COCc1nnc(-c2cccnc2)n1-c1c(Cl)c(C)cc2[nH]c(=O)c(=O)[nH]c12", "melting point": "229 to 231"}
{"smiles": "O=S(=O)(c1ccc(Cl)cc1)N1CCCC1c1ccsc1", "note": "(racemic)", "melting point": 120}
{"smiles": "CC(=O)OC1CSC(Oc2cccc(Cl)n2)C(OC(C)=O)C1OC(C)=O", "note": "(stereo not drawn)", "melting point": 127}
{"smiles": "O=C1N(Cc2ccc(-c3cccc(Cl)c3)o2)c2ccccc2C12COc1cc3c(cc12)OCO3", "note": "(stereo not drawn)", "melting point": "205 to 207"}
{"smiles": "CNC(=Nc1cccc(CN(C)C)n1)NC#N", "melting point": "180 to 181"}
{"smiles": "COc1ccc2[nH]c(C(C)=NO)cc2c1", "melting point": "148 to 150"}
{"smiles": "CN(C)C(=O)Cc1c[nH]c2ccc(I)cc12", "melting point": "195 to 200"}
{"smiles": "CC(C)=Cn1ncc(OCc2ccc(I)nc2)c(Cl)c1=O", "melting point": "141 to 142"}
{"smiles": "COc1ccc(C(=O)Nc2ncc(Cl)cc2Cl)c2c1oc1ccccc12", "melting point": 302}
{"smiles": "FC(F)(F)Oc1ccc2cnn(SC(Cl)(Cl)Cl)c2c1", "melting point": 45}
{"smiles": "COc1ccc(C=C2NC(=O)NC2=O)cc1OC1CCCC1", "melting point": "220 to 222"}
{"smiles": "C=C(C)C(=O)Oc1ccc2c(c1)CCc1cc(OC(=O)C(=C)C)ccc1-2", "melting point": 116}
{"smiles": "COC(=O)CCc1ccc(NC(=O)C(COC2CCCCO2)NS(=O)(=O)c2ccc(Cl)cc2)cc1", "note": "(racemic)", "melting point": "102 to 107"}
{"smiles": "CCCCCCCCCCCCc1nnn(C(CCCCCCCCCCCC)C(=O)O)n1", "note": "(stereo not drawn)", "melting point": "57 to 59"}
{"smiles": "CC(=O)Nc1ccc(O)cc1Cl", "melting point": "128 to 129"}
{"smiles": "Cc1cc(-c2ccc(OC3SCC(O)C(O)C3O)c(F)n2)ccn1", "note": "(stereo not drawn)", "melting point": "159 to 162"}
{"smiles": "CCC=Nc1cc(CO)cc(Nc2c3ccccc3nc3ccccc23)c1", "melting point": "262 to 263"}
{"smiles": "C[C@@H](Oc1cc(-c2ncc(C(F)(F)F)cc2F)c(F)cc1Cl)C(=O)O", "melting point": "48 to 50"}
{"smiles": "CCc1ccccc1C=C1CCN2Cc3ccccc3N=C12", "melting point": "224 to 225"}
{"smiles": "CCN(CC)C(=O)n1nc(C(C)(C)C)cc1SC", "melting point": "55 to 56"}
{"smiles": "COc1ccc(-c2cc3nc(CNCC(C)O)c4ccccc4c3nn2)cc1", "note": "(stereo not drawn)", "melting point": "147 to 149"}
{"smiles": "Cc1ccc(-c2nnc(N3CCCCCC3)nc2-c2ccc(C)cc2)cc1", "melting point": "162 to 164"}
{"smiles": "CSc1ccc(N2CC=C(c3cccc(C)c3)CC2)nn1", "melting point": 130}
{"smiles": "O=C(NCCN1CCOCC1)Nc1nc2ccc(OC(c3c(Cl)cccc3Cl)C(F)(F)F)cc2s1", "note": "(stereo not drawn)", "melting point": "150 to 160"}
{"smiles": "COc1ccc(-c2onc3ccc(Br)cc23)cc1", "melting point": 137}
{"smiles": "Nc1ccc(C2Sc3ccccc3C=C2c2ccc3c(c2)NC(=O)CO3)cc1", "note": "(stereo not drawn)", "melting point": "186 to 189"}
{"smiles": "O=C(NCc1cccnc1)c1ccc2n1Cc1ccccc1N(C(=O)Cc1ccc(Cl)cc1)C2", "melting point": 83}
{"smiles": "CCc1cc(=O)c2c([nH]1)CCCC2", "melting point": "133 to 137"}
{"smiles": "COc1ncc(F)c2n[nH]c(=S)n12", "melting point": 166}
{"smiles": "COC(=O)CC(=O)c1ccc(O)cc1", "melting point": "90 to 92"}
{"smiles": "CCOc1n[nH]cc1C(=O)NCc1ccc(Cl)cc1Cl", "melting point": "197 to 198"}
{"smiles": "CC1CCCCC1NC(=O)[C@@H](C)NC(=O)[C@@H](N)CC(=O)O", "note": "(stereo partly drawn)", "melting point": "206 to 209"}
{"smiles": "CC(C)(C)c1ccc(C(=O)Nc2ccc(OCCO)cc2)cc1", "melting point": "136 to 142"}
{"smiles": "CCC(O)P(=O)(OCc1ccccc1)OCc1ccccc1", "note": "(stereo not drawn)", "melting point": "81 to 82"}
{"smiles": "COC(=O)c1c(C(F)F)nc(C(F)(F)F)c(C(O)c2cccs2)c1CC(C)C", "note": "(stereo not drawn)", "melting point": "78 to 88"}
{"smiles": "CCCCCCCCCCCCCCCCCC1CC(O)C(CC)C(=O)O1", "note": "(racemic)", "melting point": "101 to 102"}
{"smiles": "O=C(O)CCCCCCCCn1nnc(-c2ccccc2)c1-c1ccccc1", "melting point": "86 to 87"}
{"smiles": "N#CSCC(Br)=C(Br)CBr", "melting point": "89 to 91"}
{"smiles": "COC(=O)CCCC(=O)c1ccco1", "melting point": 42.5}
{"smiles": "O=Cc1ccc(-c2ccc(OCc3ccccc3)cc2)cc1", "melting point": "122 to 123"}
{"smiles": "CC(C)N1C(=O)c2ccc(Cl)nc2C1=O", "melting point": "122 to 123"}
{"smiles": "COC(=O)c1ccc(OC)c(Nc2ccccc2)c1", "melting point": "79 to 81"}
{"smiles": "Cc1cc(N2C=CNC2N)ccn1", "note": "(stereo not drawn)", "melting point": 167}
{"smiles": "COc1ccc(NC(=O)c2ccc3c(c2)C(C)(C)C(=O)N3)cc1", "melting point": "169 to 171"}
{"smiles": "CC(=O)N1C(=O)NC(=O)CC1C", "note": "(stereo not drawn)", "melting point": "107 to 109"}
{"smiles": "COc1ccc(Cc2nc(C#N)c[nH]2)cc1", "melting point": "170 to 171"}
{"smiles": "CCCC(=O)N1CCc2nc3ccccc3c(C)c2CC1", "melting point": 130}
{"smiles": "Cc1ccc(C(C)(C)C)cc1S(=O)(=O)Cl", "melting point": "137 to 138"}
{"smiles": "CCOCc1nc2c(N)nc(C)c(C)c2n1NCc1ccccc1", "melting point": "149 to 151"}
{"smiles": "Cn1cc(Br)nc(Nc2cccnc2)c1=O", "melting point": "> 250"}
{"smiles": "c1ccc2c(c1)CCc1c(CN3CCN(c4cc5ccccc5cn4)CC3)n[nH]c1-2", "melting point": "228 to 230"}
{"smiles": "O=C1CCc2cc3c(cc21)CCC3", "melting point": "72.4 to 74.8"}
{"smiles": "NNc1nc(Cl)nc2cccc(F)c12", "melting point": "> 280"}
{"smiles": "N#Cc1ccc(N2CCC(CC(=O)O)CC2)c2ccccc12", "melting point": "195 to 196"}
{"smiles": "NCC1CC1CCC(=O)Nc1ccc(NC(=O)CCC2CC2CN)c2c1C(=O)c1ccccc1C2=O", "note": "(stereo not drawn)", "melting point": "208 to 210"}
{"smiles": "CCN(CC)C(=O)c1c(I)ccc(F)c1[Si](C)(C)C", "melting point": "58.5 to 64"}
